The target in test [1] is T1, Photoreceptor-specific nuclear receptor (Homo sapiens, UniProt Q9Y5X4). In words: Agonist activity at NR2E3 by beta lactamase transactivation assay. In kind it is functional.
Test [2] concerns the target T1, Photoreceptor-specific nuclear receptor. In words: Agonist activity at NR2E3 by luciferase NCOR release assay in CHO cells. In kind it is functional, cell-based.

The structures appear in SMILES notation. Where only a bound is given, the exact number is not on record here.

T1 sequence (Q9Y5X4 whole entry): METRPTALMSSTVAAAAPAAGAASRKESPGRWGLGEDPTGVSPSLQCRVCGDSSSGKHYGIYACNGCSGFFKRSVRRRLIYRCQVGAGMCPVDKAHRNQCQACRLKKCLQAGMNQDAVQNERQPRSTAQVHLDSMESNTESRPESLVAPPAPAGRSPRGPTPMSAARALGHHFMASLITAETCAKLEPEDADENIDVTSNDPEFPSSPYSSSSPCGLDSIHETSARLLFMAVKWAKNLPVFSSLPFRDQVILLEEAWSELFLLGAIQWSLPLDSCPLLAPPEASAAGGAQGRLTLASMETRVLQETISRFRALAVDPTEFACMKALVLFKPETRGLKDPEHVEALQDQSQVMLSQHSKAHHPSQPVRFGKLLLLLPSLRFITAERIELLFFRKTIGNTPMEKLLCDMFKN

Usually EC50 stands for the concentration giving half of the maximal effect. A higher EC50 goes with a less potent agent. With `O=C(Nc1ccc(-c2nc3ccc(NC(=O)C4CC4)cc3[nH]2)cc1)c1ccccc1Cl`, the results for the EC50 in test [1] and in test [2] were 141 nM and 35 nM, respectively.

`O=C(Nc1cccc(-c2nc3cc(NC(=O)c4ccccc4Cl)ccc3[nH]2)c1)c1ccccc1Cl`: the EC50 in test [1] was determined as 10000 nM; in test [2], 4100 nM.

On to `O=C(Nc1ccc(-c2nc3cc(NC(=O)c4ccccc4Cl)ccc3[nH]2)cc1)c1ccccc1`, for which the values for the EC50 in test [1] and in test [2] were 270 nM and 610 nM, respectively.

For the molecule `O=C(Nc1ccc(-c2nc3cc(NC(=O)C4CC4(F)F)ccc3[nH]2)cc1)c1ccccc1Cl` (stereo unspecified), the EC50 was 2100 nM in test [1] and 3000 nM in test [2].

As to `O=C(Nc1ccc(-c2nc3cc(NC(=O)C4CCC4)ccc3[nH]2)cc1)c1ccccc1Cl`, the EC50 in test [1] was determined as 1330 nM; in test [2] it was 986 nM.

In the case of `O=C(Nc1ccc(-c2nc3cc(NC(=O)c4ccccc4Cl)ccc3[nH]2)cc1)c1ccccc1F`, the EC50 in test [1] is 270 nM; in test [2] it was 170 nM.

As for `O=C(Nc1ccc(-c2nc3cc(NC(=O)[C@@H]4C[C@H]4F)ccc3[nH]2)cc1)c1ccccc1Cl`, the EC50 in test [1] worked out at 720 nM; in test [2] it was 260 nM.

In the case of `O=C(Nc1ccc(-c2nc3cc(NC(=O)C4(c5ccccc5)CC4)ccc3[nH]2)cc1)c1ccccc1Cl`, the EC50 in test [1] is over 25000 nM; in test [2], 370 nM.

As for `N#CC1(C(=O)Nc2ccc3[nH]c(-c4ccc(NC(=O)c5ccccc5Cl)cc4)nc3c2)CC1`, the results for the EC50 in test [1] and in test [2] were 17000 nM and 10000 nM, respectively.

With `Cc1ccccc1C(=O)Nc1ccc(-c2nc3ccc(NC(=O)c4ccccc4Cl)cc3[nH]2)cc1`, the EC50 came to 260 nM in test [1] and 330 nM in test [2].

Turning to `CC(C)C(=O)Nc1ccc2nc(-c3ccc(NC(=O)c4ccccc4Cl)cc3)[nH]c2c1`, the EC50 was 316 nM in test [1] and 147 nM in test [2].

Regarding `O=C(Nc1ccc2[nH]c(-c3ccc4c(c3)OCO4)nc2c1)c1ccccc1Cl`, the EC50 is over 25000 nM in test [1] and 7200 nM in test [2].

Take `O=C(Nc1ccc(-c2nc3ccc(NC(=O)C4CCCC4)cc3[nH]2)cc1)c1ccccc1Cl`: the EC50 in test [1] is 3160 nM; in test [2], 1320 nM.

On to `O=C(Nc1ccc2nc(-c3ccc(NC(=O)c4cccnc4Cl)cc3)[nH]c2c1)c1ccccc1Cl`, for which the EC50 in test [1] is 4800 nM; in test [2], 2200 nM.

Turning to `O=C(Nc1ccc2nc(-c3cnn(-c4ccc(F)cc4)c3)[nH]c2c1)c1ccccc1Cl`, the EC50 in test [1] is over 25000 nM; in test [2], 4100 nM.

On to `O=C(Nc1ccc2nc(-c3cc(Cl)cc(Cl)c3O)[nH]c2c1)c1ccccc1Cl`, for which the EC50 in test [1] was over 25000 nM; in test [2], 4200 nM.

Turning to `CC(C)(C)C(=O)Nc1ccc2nc(-c3ccc(NC(=O)c4ccccc4Cl)cc3)[nH]c2c1`, the EC50 turned out to be 6270 nM in test [1] and 2610 nM in test [2].

Take `CC1(C(=O)Nc2ccc3nc(-c4ccc(NC(=O)c5ccccc5Cl)cc4)[nH]c3c2)CC1`: the results for the EC50 in test [1] and in test [2] were 2500 nM and 2900 nM, respectively.

The values above are taken from ChEMBL document CHEMBL1149483, “Identification of potent agonists of photoreceptor-specific nuclear receptor (NR2E3) and preparation of a radioligand” (Bioorg Med Chem Lett, 2006).
